Results reported in ChEMBL document CHEMBL1221248, “Synthesis and SAR of (piperazin-1-yl-phenyl)-arylsulfonamides: a novel series of atypical antipsychotic agents” (Bioorg Med Chem Lett, 2010).
Active and inactive are the calls of the source. No cut-off for these calls is given here.

Tests used:
[1] = molecular target: T1, 5-hydroxytryptamine receptor 2C (Homo sapiens, UniProt P28335); assay: Displacement of [3H]mesulergine from human 5HT2C expressed in CHOKI cells; assay type: cell-based
T1 sequence (P28335 whole entry): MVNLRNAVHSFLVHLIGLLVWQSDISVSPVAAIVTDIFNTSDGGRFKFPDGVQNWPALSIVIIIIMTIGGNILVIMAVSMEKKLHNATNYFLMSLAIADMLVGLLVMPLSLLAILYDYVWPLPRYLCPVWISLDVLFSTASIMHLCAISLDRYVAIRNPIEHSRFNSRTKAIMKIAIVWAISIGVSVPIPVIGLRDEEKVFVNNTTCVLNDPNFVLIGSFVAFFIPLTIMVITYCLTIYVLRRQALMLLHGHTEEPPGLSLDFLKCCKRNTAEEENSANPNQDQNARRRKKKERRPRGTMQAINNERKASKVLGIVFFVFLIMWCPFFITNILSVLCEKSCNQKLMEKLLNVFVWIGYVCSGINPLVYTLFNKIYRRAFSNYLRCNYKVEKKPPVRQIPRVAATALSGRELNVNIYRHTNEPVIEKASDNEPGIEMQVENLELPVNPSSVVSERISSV

D(3) dopamine receptor = D(3) dopamine receptor (Homo sapiens, UniProt P35462); assay: Displacement of [3H]spiperone from human dopamine D3 receptor expressed in CHOKI cells; assay type: cell-based
Sequence of D(3) dopamine receptor (P35462 whole entry): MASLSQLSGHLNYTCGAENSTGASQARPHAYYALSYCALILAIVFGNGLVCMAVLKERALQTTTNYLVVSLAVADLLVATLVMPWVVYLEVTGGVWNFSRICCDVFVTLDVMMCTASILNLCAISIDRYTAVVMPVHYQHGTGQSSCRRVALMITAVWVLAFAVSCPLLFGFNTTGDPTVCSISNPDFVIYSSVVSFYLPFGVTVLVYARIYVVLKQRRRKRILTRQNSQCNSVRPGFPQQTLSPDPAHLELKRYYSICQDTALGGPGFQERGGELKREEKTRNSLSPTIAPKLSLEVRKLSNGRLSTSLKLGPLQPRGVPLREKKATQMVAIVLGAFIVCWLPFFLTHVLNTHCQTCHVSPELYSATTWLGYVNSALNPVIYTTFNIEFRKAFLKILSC

D(4) dopamine receptor = molecular target: T2, D(4) dopamine receptor (Homo sapiens, UniProt P21917); assay: Displacement of [3H]spiperone from human dopamine D4 receptor expressed in CHOKI cells; assay type: cell-based
T2 sequence (P21917 whole entry): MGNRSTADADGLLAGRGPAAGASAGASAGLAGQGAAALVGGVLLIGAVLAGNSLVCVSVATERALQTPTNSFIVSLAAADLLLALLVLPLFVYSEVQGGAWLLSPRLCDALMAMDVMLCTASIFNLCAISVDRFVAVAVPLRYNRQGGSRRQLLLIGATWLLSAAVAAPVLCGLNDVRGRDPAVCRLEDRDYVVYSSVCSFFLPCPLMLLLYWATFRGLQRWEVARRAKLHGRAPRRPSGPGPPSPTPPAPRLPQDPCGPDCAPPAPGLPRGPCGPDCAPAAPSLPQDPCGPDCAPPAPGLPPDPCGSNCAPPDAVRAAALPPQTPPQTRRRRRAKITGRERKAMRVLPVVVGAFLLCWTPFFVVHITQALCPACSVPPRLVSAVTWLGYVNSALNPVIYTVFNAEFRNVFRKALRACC

Homo sapiens [2] = species on record: Homo sapiens; assay: Selectivity ratio of IC50 for human 5HT7 to IC50 for human 5HT6 receptor
D(2) dopamine receptor = D(2) dopamine receptor (Homo sapiens, UniProt P14416); assay: Displacement of [3H]spiperone from human dopamine D2 expressed in CHOKI cells; assay type: cell-based
Sequence of D(2) dopamine receptor (P14416 whole entry): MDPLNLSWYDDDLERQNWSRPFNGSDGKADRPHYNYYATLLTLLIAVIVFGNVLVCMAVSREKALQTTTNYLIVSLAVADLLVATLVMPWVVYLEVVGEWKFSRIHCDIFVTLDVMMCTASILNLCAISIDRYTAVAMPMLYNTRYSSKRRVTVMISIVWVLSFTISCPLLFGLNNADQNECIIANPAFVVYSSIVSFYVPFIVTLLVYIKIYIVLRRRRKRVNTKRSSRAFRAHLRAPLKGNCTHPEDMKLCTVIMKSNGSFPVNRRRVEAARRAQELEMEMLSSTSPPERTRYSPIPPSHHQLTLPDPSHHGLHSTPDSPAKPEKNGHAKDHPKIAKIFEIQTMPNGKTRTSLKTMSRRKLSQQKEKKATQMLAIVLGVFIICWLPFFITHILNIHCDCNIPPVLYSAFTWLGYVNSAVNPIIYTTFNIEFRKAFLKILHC

[3] = molecular target: T3, 5-hydroxytryptamine receptor 1A (Homo sapiens, UniProt P08908); assay: Displacement of [3H]8-OH-DPAT from human 5HT1A expressed in CHOKI cells; assay type: cell-based
T3 sequence (P08908 whole entry): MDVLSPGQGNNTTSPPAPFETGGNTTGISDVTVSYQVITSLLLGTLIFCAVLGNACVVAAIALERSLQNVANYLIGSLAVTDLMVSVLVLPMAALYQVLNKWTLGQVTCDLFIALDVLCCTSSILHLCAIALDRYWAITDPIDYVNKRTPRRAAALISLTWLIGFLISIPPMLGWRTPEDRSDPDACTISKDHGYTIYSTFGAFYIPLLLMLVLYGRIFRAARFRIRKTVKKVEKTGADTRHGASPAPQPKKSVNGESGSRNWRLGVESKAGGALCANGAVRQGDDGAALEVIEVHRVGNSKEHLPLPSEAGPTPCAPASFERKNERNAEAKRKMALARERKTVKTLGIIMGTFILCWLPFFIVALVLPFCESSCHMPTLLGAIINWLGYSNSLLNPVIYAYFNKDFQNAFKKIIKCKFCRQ

Homo sapiens [4] = species on record: Homo sapiens; assay: Selectivity ratio of IC50 for human dopamine D2 to IC50 for human 5HT2C
Homo sapiens [5] = species on record: Homo sapiens; assay: Selectivity ratio of IC50 for human 5HT1A to IC50 for human 5HT2C
Homo sapiens [6] = species on record: Homo sapiens; assay: Selectivity ratio of IC50 for human dopamine D4 to IC50 for human 5HT6 receptor
[7] = molecular target: T4, 5-hydroxytryptamine receptor 6 (Homo sapiens, UniProt P50406); assay: Antagonist activity at human 5HT6 expressed in human HeLa cells assessed as inhibition of 5-HT-stimulated cAMP accumulation
Target sequence in this assay (P50406 whole entry, looked up): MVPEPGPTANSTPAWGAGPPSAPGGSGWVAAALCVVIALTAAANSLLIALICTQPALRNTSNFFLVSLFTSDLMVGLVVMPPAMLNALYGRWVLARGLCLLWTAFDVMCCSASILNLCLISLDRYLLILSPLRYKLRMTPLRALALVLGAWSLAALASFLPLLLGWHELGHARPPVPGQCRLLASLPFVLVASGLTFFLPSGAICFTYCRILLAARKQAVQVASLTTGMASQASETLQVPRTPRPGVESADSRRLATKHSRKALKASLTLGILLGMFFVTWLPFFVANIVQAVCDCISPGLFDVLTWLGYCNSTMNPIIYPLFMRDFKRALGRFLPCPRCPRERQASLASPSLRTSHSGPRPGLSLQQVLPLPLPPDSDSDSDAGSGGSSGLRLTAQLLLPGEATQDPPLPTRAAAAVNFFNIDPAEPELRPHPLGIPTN

Homo sapiens [8] = species on record: Homo sapiens; assay: Selectivity ratio of IC50 for human 5HT7 to IC50 for human 5HT2C
Homo sapiens [9] = species on record: Homo sapiens; assay: Selectivity ratio of IC50 for human dopamine D4 to IC50 for human 5HT2C
[10] = molecular target: 5-hydroxytryptamine receptor 2A (Homo sapiens, UniProt P28223); assay: Displacement of [3H]ketanserin from human 5HT2A expressed in CHOKI cells; assay type: cell-based
Sequence of 5-hydroxytryptamine receptor 2A (P28223 whole entry): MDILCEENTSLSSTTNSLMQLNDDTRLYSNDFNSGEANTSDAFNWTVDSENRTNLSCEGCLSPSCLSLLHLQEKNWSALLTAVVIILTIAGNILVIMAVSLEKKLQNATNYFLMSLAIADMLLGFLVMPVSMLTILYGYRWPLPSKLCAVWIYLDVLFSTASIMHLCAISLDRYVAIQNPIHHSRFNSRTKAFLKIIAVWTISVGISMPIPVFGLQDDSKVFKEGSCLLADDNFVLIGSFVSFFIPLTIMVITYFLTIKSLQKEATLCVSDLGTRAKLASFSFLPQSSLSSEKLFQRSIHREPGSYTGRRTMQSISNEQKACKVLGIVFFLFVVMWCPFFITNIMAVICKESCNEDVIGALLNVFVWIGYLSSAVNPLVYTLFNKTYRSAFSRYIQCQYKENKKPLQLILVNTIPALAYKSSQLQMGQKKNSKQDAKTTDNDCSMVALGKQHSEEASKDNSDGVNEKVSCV

[11] = molecular target: Serotonin 2 receptors; 5-HT2a & 5-HT2c (Homo sapiens) (UniProt P28223+P28335); assay: Selectivity ratio of IC50 for human 5HT2A to IC50 for human 5HT2C
Sequence of Serotonin 2 receptors; 5-HT2a & 5-HT2c (Homo sapiens) (P28223 whole entry, looked up, one chain of several): as the sequence (P28223 whole entry) above

[12] = molecular target: T4, 5-hydroxytryptamine receptor 6; assay: Displacement of [3H]LSD from human 5HT6 receptor expressed in HEK293 cells; assay type: cell-based
Target sequence in this assay (P50406 whole entry): as the sequence (P50406 whole entry, looked up) above

Homo sapiens [13] = species on record: Homo sapiens; assay: Selectivity ratio of IC50 for human 5HT2A to IC50 for human 5HT6 receptor
Homo sapiens [14] = species on record: Homo sapiens; assay: Selectivity ratio of IC50 for human dopamine D3 to IC50 for human 5HT6 receptor
Homo sapiens [15] = species on record: Homo sapiens; assay: Selectivity ratio of IC50 for human dopamine D3 to IC50 for human 5HT2C
Homo sapiens [16] = species on record: Homo sapiens; assay: Selectivity ratio of IC50 for human dopamine D2 to IC50 for human 5HT6 receptor
Homo sapiens [17] = species on record: Homo sapiens; assay: Selectivity ratio of IC50 for human 5HT1A to IC50 for human 5HT6 receptor
[18] = molecular target: T5, 5-hydroxytryptamine receptor 2C (Homo sapiens) (UniProt P28335); assay: Antagonist activity at human 5HT2C expressed in CHO cells assessed as inhibition of 5-HT-stimulated [35S]GTPgamma binding; assay type: functional, cell-based
T5 sequence (whole entry): T1 sequence (P28335 whole entry)

[19] = molecular target: T4, 5-hydroxytryptamine receptor 6; assay: Antagonist activity at human 5HT6 receptor expressed in human HeLa cells assessed as inhibition of 5-HT-stimulated cAMP production; assay type: functional, cell-based
Target sequence in this assay (P50406 whole entry): as the sequence (P50406 whole entry, looked up) above

[20] = molecular target: 5-hydroxytryptamine receptor 7 (Homo sapiens, UniProt P34969); assay: Displacement of [3H]LSD from human 5HT7 expressed in CHOKI cells; assay type: cell-based
Sequence of 5-hydroxytryptamine receptor 7 (P34969 whole entry): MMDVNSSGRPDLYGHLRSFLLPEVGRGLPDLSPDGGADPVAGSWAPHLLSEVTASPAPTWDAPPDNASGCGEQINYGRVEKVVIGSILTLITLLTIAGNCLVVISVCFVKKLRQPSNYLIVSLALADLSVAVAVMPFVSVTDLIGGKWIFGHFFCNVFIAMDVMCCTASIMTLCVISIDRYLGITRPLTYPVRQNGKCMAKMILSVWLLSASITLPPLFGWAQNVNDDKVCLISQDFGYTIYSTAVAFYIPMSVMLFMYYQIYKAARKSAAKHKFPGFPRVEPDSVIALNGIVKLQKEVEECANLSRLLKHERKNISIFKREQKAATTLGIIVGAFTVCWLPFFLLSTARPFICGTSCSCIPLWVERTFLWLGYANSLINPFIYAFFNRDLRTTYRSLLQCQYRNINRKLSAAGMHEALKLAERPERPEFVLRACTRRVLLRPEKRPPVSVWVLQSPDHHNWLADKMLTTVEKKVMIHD

Row | SMILES | IC50 [1] [nM] | IC50 (D(3) dopamine receptor) [nM] | IC50 (D(4) dopamine receptor) [nM] | IC50 (D(2) dopamine receptor) [nM] | IC50 [3] [nM] | IC50 [10] [nM] | IC50 [12] [nM] | IC50 [20] [nM] | other results
1 | Cc1ccc(S(=O)(=O)N(c2cccc(N3CCN(C)CC3)c2)C(C)C)cc1 | 106 | – | – | – | – | – | – | – | –
2 | CC(C)N(c1cccc(N2CCN(C)CC2)c1)S(=O)(=O)c1ccc2ccccc2c1 | 4 | 248 | > 1000 | > 10000 | > 1000 | 118 | 3 | – | Ratio IC50 (Homo sapiens [2]): > 25; Ratio IC50 (Homo sapiens [4]): > 25; Ratio IC50 (Homo sapiens [5]): > 25; Ratio IC50 (Homo sapiens [6]): > 25; inhibition [7]: Active; Ratio IC50 (Homo sapiens [8]): > 25; Ratio IC50 (Homo sapiens [9]): > 25; Ratio IC50 [11]: > 25; Ratio IC50 (Homo sapiens [13]): > 25; Ratio IC50 (Homo sapiens [14]): > 25; Ratio IC50 (Homo sapiens [15]): > 25; Ratio IC50 (Homo sapiens [16]): > 25; Ratio IC50 (Homo sapiens [17]): > 25; inhibition [18]: Dose-dependent effect; inhibition [19]: Active
3 | CC(C)N(c1cccc(N2CCN(C)CC2)c1)S(=O)(=O)c1ccccc1 | 21 | 2890 | > 10000 | > 10000 | 3400 | 172 | 644 | 1010 | –
4 | CC(C)N(c1ccccc1N1CCN(C)CC1)S(=O)(=O)c1ccc2ccccc2c1 | 4640 | – | – | – | – | – | 2190 | – | –
5 | CC(C)N(C(=O)Nc1ccccc1)c1cccc(N2CCN(C)CC2)c1 | > 10000 | – | – | – | – | – | – | – | –
6 | CC(C)N(c1ccc(N2CCN(C)CC2)cc1)S(=O)(=O)c1ccc2ccccc2c1 | 1720 | – | – | – | – | – | 27 | – | –
7 | CCCN(c1cccc(N2CCN(C)CC2)c1)S(=O)(=O)c1ccc2ccccc2c1 | 7 | 2510 | > 10000 | > 10000 | 3760 | 389 | 4 | 3860 | Ratio IC50 (Homo sapiens [2]): > 25; Ratio IC50 (Homo sapiens [4]): > 25; Ratio IC50 (Homo sapiens [5]): > 25; Ratio IC50 (Homo sapiens [6]): > 25; Ratio IC50 (Homo sapiens [8]): > 25; Ratio IC50 (Homo sapiens [9]): > 25; Ratio IC50 [11]: > 25; Ratio IC50 (Homo sapiens [13]): > 25; Ratio IC50 (Homo sapiens [14]): > 25; Ratio IC50 (Homo sapiens [15]): > 25; Ratio IC50 (Homo sapiens [16]): > 25; Ratio IC50 (Homo sapiens [17]): > 25
8 | CC(C)N(C(=O)c1ccc(Cl)cc1)c1cccc(N2CCN(C)CC2)c1 | 7700 | – | – | – | – | – | – | – | –
9 | CCN(c1cccc(N2CCN(C)CC2)c1)S(=O)(=O)c1ccc2ccccc2c1 | 16 | 1170 | > 10000 | > 10000 | 485 | 218 | 3 | 2060 | –
10 | CN1CCN(c2cccc(N(Cc3cccnc3)S(=O)(=O)c3ccc4ccccc4c3)c2)CC1 | 34 | – | – | – | – | – | – | – | –
11 | CC(C)N(c1cccc(I)c1)S(=O)(=O)c1ccc2ccccc2c1 | 467 | – | – | – | – | – | 1180 | – | –
12 | CN1CCN(c2cccc(N(CC3CC3)S(=O)(=O)c3ccc4ccccc4c3)c2)CC1 | 6 | 1430 | > 10000 | > 10000 | 672 | 88 | 6 | 3040 | –
13 | CC(C)N(C(=O)c1ccc2ccccc2c1)c1cccc(N2CCN(C)CC2)c1 | 420 | – | – | – | – | – | – | – | –
14 | CC(C)N(c1cccc(N2CCN(C)CC2)c1)S(=O)(=O)c1ccc([N+](=O)[O-])cc1 | 462 | – | – | – | – | – | – | – | –
15 | CC(C)N(C(=O)c1ccccc1)c1cccc(N2CCN(C)CC2)c1 | 4160 | – | – | – | – | – | – | – | –
16 | CC(C)N(c1cccc(N2CCN(C)CC2)c1)S(=O)(=O)c1ccc(Cl)cc1 | 243 | – | – | – | – | – | – | – | –
17 | CCC(CC)N(c1cccc(N2CCN(C)CC2)c1)S(=O)(=O)c1ccc2ccccc2c1 | 159 | – | – | – | – | – | – | – | –
18 | CCC(C)N(c1cccc(N2CCN(C)CC2)c1)S(=O)(=O)c1ccc2ccccc2c1 (centres undefined) | 168 | – | – | – | – | – | – | – | –
19 | CN1CCN(c2cccc(N(C)S(=O)(=O)c3ccc4ccccc4c3)c2)CC1 | 36 | 2420 | > 10000 | > 10000 | 95 | 1420 | 7 | 4430 | –
20 | CC(C)N(C(=O)c1cccc2ccccc12)c1cccc(N2CCN(C)CC2)c1 | 97 | – | – | – | – | – | – | – | –
21 | CN1CCN(c2cccc(NS(=O)(=O)c3ccc4ccccc4c3)c2)CC1 | 5150 | 2100 | > 10000 | > 10000 | 57 | 1620 | 13 | 1580 | –
22 | CC(C)N(Cc1ccccc1)c1cccc(N2CCN(C)CC2)c1 | > 10000 | – | – | – | – | – | – | – | –
23 | CN1CCN(c2cccc(N(Cc3ccccc3)S(=O)(=O)c3ccc4ccccc4c3)c2)CC1 | 32 | 943 | > 10000 | > 10000 | 280 | 50 | 3 | 2040 | –
24 | CC(C)N(c1cccc(N2CCN(C)CC2)c1)S(=O)(=O)c1cccc2ccccc12 | 100 | 1200 | > 10000 | > 10000 | 298 | 122 | 16 | 2870 | –
25 | CC(C)N(c1ccc(Oc2cccnc2)nc1)S(=O)(=O)c1ccc2ccccc2c1 | > 10000 | – | – | – | – | – | 422 | – | –
26 | CN1CCN(c2cccc(N(CC3CCCC3)S(=O)(=O)c3ccc4ccccc4c3)c2)CC1 | 11 | – | – | – | – | – | – | – | –
